# According to patent US10538555B2, “Macrocyclic inhibitors of the PD-1/PD-L1 and CD80(B7-1)/PD-L1 protein/protein interactions” (BRISTOL-MYERS SQUIBB COMPANY, priority 2014, dated 2020):
# *1 amine or outer side, *2 acyl side, *3 side chain or, on linkers, in order; H or OH if unused. Where a SMILES comes first, the peptide text is derived from it. Bridges are numbered along the chain shown (N, C = ends). [ ]: non-standard residue; d: D form. ξ: configuration not given here. Trp(1-CH2COOH) = N[C@@H](Cc1cn(CC(=O)O)c2ccccc12)C(=O)O; Phe(3,4,5-F3) = N[C@@H](Cc1cc(F)c(F)c(F)c1)C(=O)O; NMePhe(4-Me) = CN[C@@H](Cc1ccc(C)cc1)C(=O)O; Phe(4-F) = N[C@@H](Cc1ccc(F)cc1)C(=O)O; d(cisHyp) = O=C(O)[C@H]1C[C@@H](O)CN1; Hyp = O=C(O)[C@@H]1C[C@@H](O)CN1; NMeF = CN[C@@H](Cc1ccccc1)C(=O)O; X1 = O=C([C@H]1COCCN1[*:1])[*:2]; dHyp = O=C(O)[C@H]1C[C@H](O)CN1; NMehSer = CN[C@@H](CCO)C(=O)O; NMeNle = CCCC[C@H](NC)C(=O)O; NMeV = CN[C@H](C(=O)O)C(C)C; Pip = O=C(O)[C@@H]1CCCCN1; dPip = O=C(O)[C@H]1CCCCN1; hSer = N[C@@H](CCO)C(=O)O; NMeA = CN[C@@H](C)C(=O)O; Orn = NCCC[C@H](N)C(=O)O; dThz = O=C(O)[C@H]1CSCN1; Dab = NCC[C@H](N)C(=O)O; Dap = NC[C@H](N)C(=O)O; ξC = NC(CS)C(=O)O; Sar = CNCC(=O)O
# Molecular target: T1, Human PD-L1/PD-1 (Homo sapiens, UniProt Q9NZQ7)
# T1 construct: TVMV protease cleavage site (C); made in house; host or cells: HEK293T cells
# T1 sequence (Q9NZQ7 with tags, fused parts or gaps): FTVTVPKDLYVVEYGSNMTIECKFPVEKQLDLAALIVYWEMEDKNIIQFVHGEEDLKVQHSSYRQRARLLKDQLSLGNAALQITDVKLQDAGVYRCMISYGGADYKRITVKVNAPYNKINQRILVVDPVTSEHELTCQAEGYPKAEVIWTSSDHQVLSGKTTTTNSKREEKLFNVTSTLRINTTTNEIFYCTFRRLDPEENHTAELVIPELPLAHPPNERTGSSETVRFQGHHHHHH
# Experiment: HTRF Human PD-L1/PD-1 binding assay (PD-1-Ig/PD-L1-His)
# Settings: PD-L1-His 10 nM, PD-1-Ig 20 nM; class symbol; read-out: HTRF Human PD-L1/PD-1 Binding Assay IC50 Range
# Summary of the method: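 Step 1: compound with PD-L1-His (10 nM final), 15 min. Step 2: PD-1-Ig (20 nM final), 15 min. Step 3: Eu-cryptate anti-Ig (1 nM) plus APC anti-His (20 nM), 30 min equilibration. Signal taken as 665 nm/620 nm ratio.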
row,IC50 [nM],Structure (SMILES)
1,1 to 9.9,"COCC[C@H]1C(=O)N2C[C@@H](O)C[C@@H]2C(=O)N[C@@H](CC(=O)O)C(=O)N[C@@H](C(C)C)C(=O)N(C)[C@@H](Cc2ccccc2)C(=O)N[C@@H](Cc2ccc(O)cc2)C(=O)N2CCOC[C@@H]2C(=O)N[C@@H](Cc2c[nH]c3ccccc23)C(=O)N[C@@H](Cc2ccc(O)cc2)C(=O)N[C@@H](CC(C)C)C(=O)N[C@H](C(=O)NCC(N)=O)CSCC(=O)N[C@@H](Cc2cc(F)c(F)c(F)c2)C(=O)N(C)[C@@H](Cc2ccccc2)C(=O)N1C [Example 9264] ({CH2CO}-[Phe(3,4,5-F3)][NMeF][NMehSer](Me)[dHyp]DV[NMeF]Y[X1]WYLCG-NH2; thioether N-13)"
2,1 to 9.9,CCCC[C@H]1C(=O)N(C)[C@@H](CCCC)C(=O)N[C@@H](CCC(=O)O)C(=O)N[C@H](C(=O)NCC(N)=O)CSCC(=O)N[C@@H](Cc2ccc(O)cc2)C(=O)N2CCCC[C@H]2C(=O)N[C@@H](CC(=O)O)C(=O)N2CCC[C@H]2C(=O)N[C@@H](CN)C(=O)N[C@@H](CCC(=O)O)C(=O)N2C[C@H](O)C[C@H]2C(=O)N[C@@H](Cc2c[nH]c3ccccc23)C(=O)N[C@@H](CCN)C(=O)N[C@@H](Cc2c[nH]c3ccccc23)C(=O)N1C [Example 1262] ({CH2CO}-Y[Pip]DP[Dap]E[Hyp]W[Dab]W[NMeNle][NMeNle]ECG-NH2; thioether N-14)
3,1 to 9.9,"CCCC[C@H]1C(=O)N2CCC[C@@H]2C(=O)N[C@@H](CC(=O)O)C(=O)N[C@@H](C(C)C)C(=O)N(C)[C@@H](Cc2ccccc2)C(=O)N[C@@H](Cc2ccc(O)cc2)C(=O)N2C[C@@H](O)C[C@@H]2C(=O)N[C@@H](Cc2c[nH]c3ccccc23)C(=O)N[C@@H](Cc2ccc(O)cc2)C(=O)N[C@@H](CC(C)C)C(=O)N[C@H](C(=O)NCC(N)=O)CSCC(=O)N[C@@H](Cc2cc(F)c(F)c(F)c2)C(=O)N(C)[C@@H](Cc2ccccc2)C(=O)N1C [Example 9287] ({CH2CO}-[Phe(3,4,5-F3)][NMeF][NMeNle][dP]DV[NMeF]Y[dHyp]WYLCG-NH2; thioether N-13)"
4,1 to 9.9,CCCC[C@H]1C(=O)N(C)[C@@H](CCCC)C(=O)N[C@@H](CC(=O)O)C(=O)N[C@H](C(=O)NCC(N)=O)CSCC(=O)N[C@@H](Cc2ccc(O)cc2)C(=O)N(C)[C@@H](C)C(=O)N[C@@H](CC(=O)O)C(=O)N2CCC[C@H]2C(=O)N[C@@H](Cc2cnc[nH]2)C(=O)N[C@@H](CCCCN)C(=O)N2C[C@H](O)C[C@H]2C(=O)N[C@@H](Cc2c[nH]c3ccccc23)C(=O)N[C@@H](CCCCN)C(=O)N[C@@H](Cc2cn(CC(=O)O)c3ccccc23)C(=O)N1C [Example 6209] ({CH2CO}-Y[NMeA]DPHK[Hyp]WK[Trp(1-CH2COOH)][NMeNle][NMeNle]DCG-NH2; thioether N-14)
5,1000 to 10000,CCCC[C@H]1C(=O)N2CCC[C@@H]2C(=O)N[C@@H](CC(=O)O)C(=O)N[C@@H](C(C)C)C(=O)N(C)[C@@H](C(C)C)C(=O)N[C@@H](Cc2ccc(O)cc2)C(=O)N2CCC[C@@H]2C(=O)N[C@@H](Cc2c[nH]c3ccccc23)C(=O)N[C@@H](Cc2ccc(O)cc2)C(=O)N[C@@H](CCCN)C(=O)N[C@H](C(=O)NCC(N)=O)CSCC(=O)N[C@@H](Cc2ccc(F)cc2)C(=O)N(C)[C@@H](Cc2ccccc2)C(=O)N1C [Example 9243] ({CH2CO}-[Phe(4-F)][NMeF][NMeNle][dP]DV[NMeV]Y[dP]WY[Orn]CG-NH2; thioether N-13)
6,1 to 9.9,CCCC[C@H]1C(=O)N(C)[C@@H](C)C(=O)N[C@@H](CCCNC(=N)N)C(=O)NC(C(=O)N[C@@H](CO)C(N)=O)CSCC(=O)N[C@@H](Cc2ccc(O)cc2)C(=O)N(C)[C@@H](C)C(=O)N[C@@H](CC(N)=O)C(=O)N2CCC[C@H]2C(=O)N[C@@H](CO)C(=O)N[C@H](CC(C)C)C(=O)N2C[C@H](O)C[C@H]2C(=O)N[C@@H](Cc2c[nH]c3ccccc23)C(=O)N[C@@H](CO)C(=O)N[C@@H](Cc2c[nH]c3ccccc23)C(=O)N1C (stereo partly drawn) [Example 9123] ({CH2CO}-Y[NMeA]NPS[dL][Hyp]WSW[NMeNle][NMeA]R[ξC]S-NH2; thioether N-14)
7,100 to 990,CCCC[C@H]1C(=O)N2CCC[C@@H]2C(=O)N[C@@H](CC(=O)O)C(=O)N[C@@H](C(C)C)C(=O)N(C)[C@@H](Cc2ccc(C)cc2)C(=O)N[C@@H](CC(=O)O)C(=O)N2CCC[C@@H]2C(=O)N[C@@H](Cc2c[nH]c3ccccc23)C(=O)N[C@@H](Cc2ccc(O)cc2)C(=O)N[C@@H](CC(C)C)C(=O)N[C@H](C(=O)NCC(N)=O)CSCC(=O)N[C@@H](Cc2ccc(F)cc2)C(=O)N(C)[C@@H](Cc2ccccc2)C(=O)N1C [Example 10114] ({CH2CO}-[Phe(4-F)][NMeF][NMeNle][dP]DV[NMePhe(4-Me)]D[dP]WYLCG-NH2; thioether N-13)
8,1 to 9.9,"CCCC[C@H]1C(=O)N2C[C@H](O)C[C@@H]2C(=O)N[C@@H](CC(=O)O)C(=O)N[C@@H](C(C)C)C(=O)N(C)[C@@H](Cc2ccccc2)C(=O)N[C@@H](CCC(=O)O)C(=O)N2CCC[C@@H]2C(=O)N[C@@H](Cc2c[nH]c3ccccc23)C(=O)N[C@@H](Cc2ccc(O)cc2)C(=O)N[C@@H](CCOC)C(=O)N[C@H](C(=O)NCC(N)=O)CSCC(=O)N[C@@H](Cc2cc(F)c(F)c(F)c2)C(=O)N(C)[C@@H](Cc2ccccc2)C(=O)N1C [Example 10193] ({CH2CO}-[Phe(3,4,5-F3)][NMeF][NMeNle][d(cisHyp)]DV[NMeF]E[dP]WY[hSer](Me)CG-NH2; thioether N-13)"
9,1 to 9.9,CCCC[C@H]1C(=O)N(C)[C@@H](CCCC)C(=O)N[C@@H](CCC(=O)O)C(=O)N[C@H](C(=O)NCC(N)=O)CSCC(=O)N[C@@H](Cc2ccc(O)cc2)C(=O)N(C)[C@@H](C)C(=O)N[C@@H](CC(N)=O)C(=O)N2CCC[C@H]2C(=O)N[C@@H](CO)C(=O)N[C@@H](CC(C)C)C(=O)N2C[C@H](O)C[C@H]2C(=O)N[C@@H](Cc2c[nH]c3ccccc23)C(=O)N[C@@H](CCC(=O)O)C(=O)N[C@@H](Cc2c[nH]c3ccccc23)C(=O)N1C [Example 5216] ({CH2CO}-Y[NMeA]NPSL[Hyp]WEW[NMeNle][NMeNle]ECG-NH2; thioether N-14)
10,1 to 9.9,CCCC[C@H]1C(=O)N(C)[C@@H](CCCC)C(=O)NCC(=O)N[C@H](C(=O)NCC(N)=O)CSCC(=O)N[C@@H](Cc2ccc(O)cc2)C(=O)N(C)[C@@H](C)C(=O)N[C@@H](CC(N)=O)C(=O)N2CCC[C@H]2C(=O)NCC(=O)N[C@@H](CCC(N)=O)C(=O)N2C[C@H](O)C[C@H]2C(=O)N[C@@H](Cc2c[nH]c3ccccc23)C(=O)NCC(=O)N[C@@H](Cc2c[nH]c3ccccc23)C(=O)N1C [Example 5219] ({CH2CO}-Y[NMeA]NPGQ[Hyp]WGW[NMeNle][NMeNle]GCG-NH2; thioether N-14)
11,10 to 99.9,CCCC[C@H]1C(=O)N2CSC[C@@H]2C(=O)N[C@@H](CC(=O)O)C(=O)N[C@@H](C)C(=O)N(C)[C@@H](Cc2ccccc2)C(=O)N[C@@H](Cc2ccc(O)cc2)C(=O)N2CSC[C@@H]2C(=O)N[C@@H](Cc2c[nH]c3ccccc23)C(=O)N[C@@H](Cc2ccc(O)cc2)C(=O)N[C@@H](CC(C)C)C(=O)N[C@H](C(=O)NCC(N)=O)CSCC(=O)N[C@@H](Cc2ccccc2)C(=O)N(C)[C@@H](Cc2ccccc2)C(=O)N1C [Example 10078] ({CH2CO}-F[NMeF][NMeNle][dThz]DA[NMeF]Y[dThz]WYLCG-NH2; thioether N-13)
12,100 to 990,CCCC[C@H]1C(=O)N2CCC[C@@H]2C(=O)N[C@@H](CC(=O)O)C(=O)N[C@@H](C(C)C)C(=O)N(C)[C@@H](CCOC)C(=O)N[C@@H](Cc2ccc(O)cc2)C(=O)N2CCCC[C@@H]2C(=O)N[C@@H](Cc2c[nH]c3ccccc23)C(=O)N[C@@H](Cc2ccc(O)cc2)C(=O)N[C@@H](CC(C)C)C(=O)N[C@H](C(=O)NCC(N)=O)CSCC(=O)N[C@@H](Cc2ccc(F)cc2)C(=O)N(C)[C@@H](Cc2ccccc2)C(=O)N1C [Example 9220] ({CH2CO}-[Phe(4-F)][NMeF][NMeNle][dP]DV[NMehSer](Me)Y[dPip]WYLCG-NH2; thioether N-13)
13,100 to 990,CCCC[C@H]1C(=O)N2CSC[C@@H]2C(=O)N[C@@H](CC(=O)O)C(=O)N[C@@H](C)C(=O)N(C)[C@@H](Cc2ccccc2)C(=O)N[C@@H](Cc2ccc(O)cc2)C(=O)N(C)CC(=O)N[C@@H](Cc2c[nH]c3ccccc23)C(=O)N[C@@H](Cc2ccc(O)cc2)C(=O)N[C@@H](CC(C)C)C(=O)N[C@H](C(=O)NCC(N)=O)CSCC(=O)N[C@@H](Cc2ccccc2)C(=O)N(C)[C@@H](Cc2ccccc2)C(=O)N1C [Example 10085] ({CH2CO}-F[NMeF][NMeNle][dThz]DA[NMeF]Y[Sar]WYLCG-NH2; thioether N-13)
14,1 to 9.9,CCCC[C@H]1C(=O)N(C)[C@@H](CCCC)C(=O)N[C@@H](CCC(=O)O)C(=O)N[C@H](C(=O)NCC(N)=O)CSCC(=O)N[C@@H](Cc2ccc(O)cc2)C(=O)N(C)[C@@H](C)C(=O)N[C@@H](CC(N)=O)C(=O)N2CCC[C@H]2C(=O)N[C@@H](Cc2cnc[nH]2)C(=O)N[C@@H](CCC(N)=O)C(=O)N2C[C@H](O)C[C@H]2C(=O)N[C@@H](Cc2c[nH]c3ccccc23)C(=O)N[C@@H](CCC(=O)O)C(=O)N[C@@H](Cc2c[nH]c3ccccc23)C(=O)N1C [Example 5186] ({CH2CO}-Y[NMeA]NPHQ[Hyp]WEW[NMeNle][NMeNle]ECG-NH2; thioether N-14)
15,1 to 9.9,CCCC[C@H]1C(=O)N(C)[C@@H](CCCC)C(=O)N[C@@H](CO)C(=O)NC(C(=O)NCC(N)=O)CSCC(=O)N[C@@H](Cc2ccc(O)cc2)C(=O)N(C)[C@@H](C)C(=O)N[C@@H](CC(N)=O)C(=O)N2CCC[C@H]2C(=O)N[C@@H](CC(N)=O)C(=O)N[C@@H](CC(C)C)C(=O)N2CCC[C@H]2C(=O)N[C@@H](Cc2c[nH]c3ccccc23)C(=O)N[C@@H](CO)C(=O)N[C@@H](Cc2c[nH]c3ccccc23)C(=O)N1C (stereo partly drawn) [Example 9140] ({CH2CO}-Y[NMeA]NPNLPWSW[NMeNle][NMeNle]S[ξC]G-NH2; thioether N-14)
